From patent US10517952B2, “Nucleophile-triggered degradable materials and methods of making and using the same” (GEORGIA TECH RESEARCH CORPORATION, priority 2014, dated 2019)
Where “and” joins values, the source holds several entries; their conditions need not be identical. Equal values may be shown once.

Key:
[1] = Degradation of neat PEG-OND hydrogels (inversion test, time-lapse photography); assay type: physicochemical
Description: Degradation rates of the PEG-OND hydrogels in the absence of swelling buffer varied with temperature and with the identity of OND used to form the gel. […] In comparison, gels formed using 7b were stable for more than 60 hours at 37° C., and approximately 13 hours at 50° C.
Three 500 μL 3.5 wt % hydrogels were formed with bis-ONDs 7a and 7b, and bis-EONB 8, respectively, in 2 mL vials with caps. The sealed vials were incubated in an oil bath maintained at 50° C. The samples were periodically removed from heat and the vials were inverted to determine if the gel was still intact, or whether the sample was a free-flowing liquid, as described in the main text. The gel formed between 4-PEG-SH and bis-EONB 8 in FIG. 9 was removed from heat after 5 days, and stored at room temperature in a sealed vial. The hydrogel is still intact at the time of writing (5 days at 50° C. followed by >1 year at room temperature). The inversion test was routinely used in all stability experiments to verify hydrogel integrity during incubation.
In order to observe reverse gelation upon prolonged heating of neat hydrogels, time-lapse photography was carried out. Briefly, 600 μL hydrogels comprised of 3.5 wt % 4-PEG-SH+bis-OND/EONB (7a, 7b, and 8, respectively) in pH 7.4 100 mM potassium phosphate buffer containing 7% DMSO (v/v) were formed in glass culture tubes and allowed to set for 15 minutes. A glass bead (˜160 mg, stained with blue Sharpie-brand marker to improve visibility) was placed carefully on top of each gel, and a drop of silicon oil was added to prevent evaporation at the surface of the gels. The tubes were sealed with lab parafilm and incubated in a 50° C. oil bath. Photos were collected every 2 minutes for ˜22 hours using Chronolapse software (v.1.0.4) and a Creative Labs webcam. Photographs were compiled in chronological order using iMovie software, with each photo occupying one 0.1 s frame. The resulting video is available as S1 Video, mentioned above.

[2] = Residual hydrogel thiol content with fluorogenic OND probe S-6; assay type: physicochemical; conditions: for Residual thiols in the gel network, average: average of both sets of gels from linkers 7a and 8, % of input macromer thiol content; for Gel Fraction % Residual Thiol: residual thiol in the gel, % of initial thiol content of input macromer; for Sol Fraction % Residual Thiol: thiol in supernatant, % of input thiol, swelled 18 hours at 4° C., pH 7.4 PBS, probe S-6
Description: The thiol content of cured hydrogels was determined by swelling gels in the presence of a small fluorogenic OND S-6, which we have previously described in our lab.
This probe reacts with thiols to produce a fluorescent adduct (FIG. 14A). […] Thus, the concentration of reagent S-6 in solution can be determined by quenching with thiol. Similarly, reagent S-6 can be used to quantify thiol in solution.
Based on cargo diffusion studies (see section X of this document), we expected that probe S-6 should easily permeate the hydrogel network under swelling conditions and react with accessible residual thiols present in the gel network. In order to test this hypothesis, 60 μL hydrogels were freshly prepared from 4-PEG-SH macromer and either linkers 8 or 7a as described in section III of this document. After curing for 20 minutes at room temperature, 3 mL of pH 7.4 0.1M PBS buffer containing 200 μM probe S-6 was added, and the gel was swelled at 4° C. for 18 hours. To account for hydrolytic degradation of our thiol probe during incubation, a sample was prepared with S-6 in buffer alone (lacking 4-PEG-SH and bis-OND linkers). After swelling, the gels were observed under long-wave ultraviolet light to reveal strongly fluorescent gels and weakly fluorescent supernatants (FIG. 15). […] Presumably the fluorescence in the supernatant of samples containing gels is due to soluble fraction of 4-PEG-SH macromer and oligomers not incorporated into the gel network.
In order to calculate the amount of residual thiol present in the soluble fraction, aliquots of the supernatant were removed and fluorescence was measured. Thiol content of the soluble fraction was determined by interpolation using the standard curve shown in FIG. 14 after accounting for fluorescence due to hydrolytic degradation. […] This amount corresponds well with the soluble fraction (soluble fraction=1−gel fraction) determined from swelling experiments (see Table 1 of main text). To determine residual thiol content present in gels, aliquots of the supernatant were quenched with a large excess (10 mM) of N-acetyl cysteine and the increase in fluorescence was measured to determine the amount of unreacted S-6 remaining in the supernatant. Accounting for the amount of probe already consumed by reaction with soluble fraction thiols and by hydrolytic degradation, the amount of residual thiol accessible for post-modification present in the gel was calculated as 13.4±1.4% and 10.8±2.4% of the initial thiol content of input macromer (average of 11.8±3.3 for both sets of gels prepared from linkers 7a and 8).

[3] = Release of entrained cargo from PEG-OND hydrogels; assay type: physicochemical
Description: Finally, the diffusion of entrained, rather than covalently anchored, cargos of different sizes out of OND hydrogels of differing stabilities was measured. This was done with a small molecule (carboxyfluorescein), a globular protein (fluorescein-labeled bovine serum albumin, BSA), and a 30-nm protein nanoparticle (fluorescein-labeled bacteriophage Qb virus-like particle). The first and last species have no available thiol groups; the second was reacted with N-ethylmaleimide before gelation to cap cysteine-34 and avoid tethering of the protein cargo to the hydrogel network. Hydrogels derived from 4-PEG-SH and 7a, 7b, or 8 were formed in the presence of each cargo; the speed of this reaction made it highly unlikely that OND connectors were addressed by protein amine groups under these conditions.
Three sets of three 60 μL gels were prepared using linkers 7a, 7b, and 8, respectively. The first set contained 1 mM small molecule probe 5/6-carboxyfluorescein, while the second and third sets contained FITC labeled BSA and Qβ virus-like particle, respectively. The gels were allowed to set for 30 minutes at room temperature before dilution with 3 mL of pH 7.4 100 mM phosphate buffered saline. The samples were incubated at 37° C. and the increase in absorbance of the supernatant at 497 nm was monitored. The fraction of released dye was plotted against incubation time. Least-squares kinetic fitting to a first-order rate law was performed for release profiles obtained for carboxyfluorescein cargo, and for the release of BSA from non-degradable PEG-EONB (8) hydrogel (Solver plug-in, Microsoft Excel).

**Q.** For COC(=O)C1=C(C(=O)OC)C2(CNC(=O)CCCC(=O)NCC34OC(C(C(=O)OC)=C3C(=O)OC)C3OC34)OC1C1OC12 (stereo not shown) [Linker 8, Tetramethyl 1,1′-((glutaroylbis(azanediyl))bis(methylene))bis(3,8-dioxatricyclo[3.2.1.0^2,4]oct-6-ene-6,7-dicarboxylate)], which “Inversion test for hydrogel degradation (FIG. 1B)” value [1] is on record?
**A.** Its value is “stable indefinitely”.

**Q.** What about the Long-term gel integrity ([1]; 5 days at 50° C. followed by >1 year at room temperature) of the same molecule?
**A.** Its Long-term gel integrity is “still intact”.

**Q.** What about the “Gel integrity on extended heating (inversion test)” value ([1]; neat gel, 50° C.) of the same molecule?
**A.** The value was “remained intact”.

**Q.** What about the “Gel stability by time-lapse photography, gel supporting a glass bead” value ([1]; neat gel, heating (50° C.)) of the same molecule?
**A.** The value was “remained intact”.

**Q.** And the “Residual thiols in the gel network, average” value [2]?
**A.** Its value is 11.8±3.3%.

**Q.** And the “Gel Fraction % Residual Thiol” value [2]?
**A.** The value was 13.4±1.4% and 12.8 ± 2.2%.

**Q.** And the “Sol Fraction % Residual Thiol” value [2]?
**A.** Its value is 2.1±0.4%.

**Q.** What about the “Release of entrained Qβ virus-like particles from the gel” value ([3]; pH 7.4, 37° C.) of the same molecule?
**A.** The value was “not released”.

**Q.** What about the melting point of the same molecule?
**A.** Its melting point is 125 to 130 °C.

**Q.** For COC(=O)C1=C(C(=O)OC)C2(CNC(=O)CCCC(=O)NCC34C=CC(O3)C(C(=O)OC)=C4C(=O)OC)C=CC1O2 [Linker 7a, Tetramethyl 1,1′-((glutaroylbis(azanediyl))bis(methylene))bis(7-oxabicyclo[2.2.1]hepta-2,5-diene-2,3-dicarboxylate)], which “Gel integrity on extended heating (inversion test)” value ([1]; neat gel, 50° C.) is on record?
**A.** The value was “collapsed”.

**Q.** And the “Gel stability by inversion test” value ([1]; neat gel, no swelling buffer, 4° C.)?
**A.** Its value is “stable for more than two weeks”.

**Q.** And the “Time gel is stable / collapses (inversion test)” value ([1]; neat gel, no swelling buffer, 37° C.)?
**A.** The value was 12 h.

**Q.** And the “Time gel is stable / collapses (inversion test)” value ([1]; neat gel, no swelling buffer, 50° C.)?
**A.** The value was ≤ 3 h.

**Q.** What about the “Residual thiols in the gel network, average” value [2] of the same molecule?
**A.** The value was 11.8±3.3%.

**Q.** What about the “Gel Fraction % Residual Thiol” value [2] of the same molecule?
**A.** The value was 10.8±2.4%.

**Q.** What about the “Sol Fraction % Residual Thiol” value [2] of the same molecule?
**A.** The value was 8.1±3.2%.

**Q.** And the “Fraction of BSA tethered to the network / not freely diffusing from the gel” value ([3]; FITC-BSA with ˜0.4 accessible thiols per protein)?
**A.** The value was ~20%.

**Q.** What about the “Release of entrained BSA from the gel compared with more stable matrices” value ([3]; N-ethylmaleimide-capped FITC-BSA, pH 7.4, 37° C.) of the same molecule?
**A.** The value was “markedly faster”.

**Q.** And the melting point?
**A.** Its melting point is 163 to 167 °C.
